Assay results published in US11976083B2, “Inhibitors of peptidylarginine deiminases” (Gilead Sciences, Inc., priority 2020, dated 2024).

Target: T1, human PAD4 (Homo sapiens, UniProt Q9UM07)
T1 construct: human PAD4 (NM_012387), A2-P663, was PCR amplified; His-SUMO (N, cleaved yes); made in house; host or cells: E. coli BL21(DE3)
Test: In vitro PAD4 BAEE biochemical assay
Conditions: BAEE substrate 3 mM, 5 nM PAD4, 2 mM calcium chloride; geometric mean of multiple experiments
In short: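 Recombinant PAD4 (5 nM final) with 2 mM CaCl2 was preincubated with compound for 30 min at 25 °C in MOPS pH 7.6 buffer with DTT, then reacted with 3 mM BAEE for 2 h at 25 °C. Released ammonia was detected fluorimetrically with o-phthalaldehyde/DTT; IC50 from four-parameter fit, geometric mean of experiments.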

T1 sequence (Q9UM07 2-663): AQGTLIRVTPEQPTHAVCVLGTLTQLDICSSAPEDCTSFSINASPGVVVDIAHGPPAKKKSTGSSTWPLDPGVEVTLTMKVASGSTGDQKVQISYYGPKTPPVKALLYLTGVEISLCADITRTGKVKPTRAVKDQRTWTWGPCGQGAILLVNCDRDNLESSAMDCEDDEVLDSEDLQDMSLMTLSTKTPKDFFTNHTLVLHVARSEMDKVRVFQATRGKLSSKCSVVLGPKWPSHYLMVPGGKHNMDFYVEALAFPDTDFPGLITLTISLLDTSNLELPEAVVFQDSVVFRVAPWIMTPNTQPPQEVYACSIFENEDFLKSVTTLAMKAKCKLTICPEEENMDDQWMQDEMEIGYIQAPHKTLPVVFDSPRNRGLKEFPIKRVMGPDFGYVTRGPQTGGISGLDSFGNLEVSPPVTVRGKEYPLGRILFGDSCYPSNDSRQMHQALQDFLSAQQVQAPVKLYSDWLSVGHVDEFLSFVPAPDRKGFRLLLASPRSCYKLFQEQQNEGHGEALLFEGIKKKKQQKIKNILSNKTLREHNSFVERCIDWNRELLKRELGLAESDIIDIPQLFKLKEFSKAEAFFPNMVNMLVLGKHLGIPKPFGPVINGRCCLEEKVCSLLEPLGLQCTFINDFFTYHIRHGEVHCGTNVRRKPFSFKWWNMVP

SMILES | IC50 [nM]
C[C@H]1NC(=O)[C@@H]2[C@@H](CCCC(F)(F)Cn3c(-c4nc5cc(C(=O)N[C@H]6CNCC[C@@H]6F)c(F)cc5n4C)cc4ccc1nc43)C2(F)F [Example 377, 6-fluoro-~{N}-[(3~{S},4~{S})-4-fluoro-3-piperidyl]-1-methyl-2-[(2~{R},5~{S},7~{R})-6,6,11,11-tetrafluoro-2-methyl-4-oxo-3,13,19-triazatetracyclo[11.5.2.0^{5,7}.0^{16,20}]icosa-1(19),14,16(20),17-tetraen-14-yl]benzimidazole-5-carboxamide] | 32
C[C@H]1NC(=O)[C@H]2[C@H](CCCC(F)(F)Cn3c(-c4nc5cc(C(=O)N[C@H]6CNCC[C@@H]6F)c(F)cc5n4C)cc4ccc1nc43)C2(F)F [Example 378, 6-fluoro-~{N}-[(3~{S},4~{S})-4-fluoro-3-piperidyl]-1-methyl-2-[(2~{R},5~{R},7~{S})-6,6,11,11-tetrafluoro-2-methyl-4-oxo-3,13,19-triazatetracyclo[11.5.2.0^{5,7}.0^{16,20}]icosa-1(19),14,16(20),17-tetraen-14-yl]benzimidazole-5-carboxamide] | 41
C[C@H]1NC(=O)[C@H]2C[C@@H]2CC[C@@H]2C[C@@H]2Cn2c(-c3nc4cc(C(=O)N[C@H]5CNCC[C@@H]5F)c(F)cc4n3C)cc3ccc1nc32 [Example 379, 6-fluoro-~{N}-[(3~{S),4~{S})-4-fluoro-3-piperidyl]-1-methyl-2-[(3~{S},5~{R},8~{S},10~{S},13~{R})-13-methyl-11-oxo-1,12,21-triazapentacyclo[12.5.2.0^{3,5}.0^{8,10}.0^ {17,20}]henicosa-14(21),15,17(20),18-tetraen-19-yl]benzimidazole-5-carboxamide] | 2040
COc1cc(C(=O)N[C@H]2CNCC[C@@H]2C(F)(F)F)cc2nc(-c3cc4ccc5nc4n3CCCCCCC(C)(C)C(=O)N[C@@H]5C)n(C)c12 [Example 380, 7-methoxy-1-methyl-~{N}-[(3~{R},4~{S})-4-(trifluoromethyl)-3-piperidyl]-2-[(11~{R})-8,8,11-trimethyl-9-oxo-1,10,19-triazatricyclo[10.5.2.0^{15,18}]nonadeca-12(19),13,15(18),16-tetraen-17-yl]benzimidazole-5-carboxamide] | 1270
C[C@H]1NC(=O)[C@H]2[C@H](CCCCCn3c(-c4nc5cc(C(=O)N[C@H]6CNCC[C@@H]6F)c(F)cc5n4C)cc4ccc1nc43)C2(F)F [Example 383, 2-[(2˜{R},5˜{R},7˜{S})-6,6-difluoro-2-methyl-4-oxo-3,13,19-triazatetracyclo[11.5.2.0^{5,7}.0^{16,20}]icosa-1(19),14,16(20),17-tetraen-14-yl]-6-fluoro-˜{N}-[(3˜{S},4˜{S})-4-fluoro-3-piperidyl]-1-methyl-benzimidazole-5-carboxamide] | 28
C[C@H]1NC(=O)c2c(cccc2C(F)F)CCCCCn2c(-c3nc4cc(C(=O)N[C@H]5CNCC[C@@H]5F)c(F)cc4n3C)cc3ccc1nc32 [Example 384, 2-[(2~{R})-6-(difluoromethyl)-2-methyl-4-oxo-3,16,22-triazatetracyclo[14.5.2.0^{5,10}.0^{19,23}]tricosa-1(22),5(10),6,8,17,19(23),20-heptaen-17-yl]-6-fluoro-~{N}-[(3~{S},4~{S})-4-fluoro-3-piperidyl]-1-methyl-benzimidazole-5-carboxamide] | 62
C[C@H]1NC(=O)[C@@H]2C[C@H]2CC[C@@H]2[C@H](Cn3c(-c4nc5cc(C(=O)N[C@H]6CNCC[C@@H]6F)c(F)cc5n4C)cc4ccc1nc43)C2(F)F [Example 386, 2-[(3~{R},5~{R},8~{R},10~{R},13~{R})-4,4-difluoro-13-methyl-11-oxo-1,12,21-triazapentacyclo[12.5.2.0^{3,5}.0^{8,10}.0^ {17,20}]henicosa-14(21),15,17(20),18-tetraen-19-yl]-6-fluoro-~{N}-[(3~{S},4~{S})-4-fluoro-3-piperidyl]-1-methyl-benzimidazole-5-carboxamide] | 24
C[C@H]1NC(=O)[C@]2(F)C[C@H]2CCCCCn2c(-c3nc4cc(C(=O)N[C@H]5CNCC[C@@H]5F)c(F)cc4n3C3CC3)cc3ccc1nc32 [Example 387, 1-cyclopropyl-6-fluoro-2-[(2~{R},5~{S},7~{R})-5-fluoro-2-methyl-4-oxo-3,13,19-triazatetracyclo[11.5.2.0^{5,7}.0^{16,20}]icosa-1(19),14,16(20),17-tetraen-14-yl]-~ {N}-[(3~{S},4~{S})-4-fluoro-3-piperidyl]benzimidazole-5-carboxamide] | 25
C[C@H]1NC(=O)[C@@H]2C[C@@]2(F)CCCCCn2c(-c3nc4cc(C(=O)N[C@H]5CNCC[C@@H]5F)c(F)cc4n3C3CC3)cc3ccc1nc32 [Example 388] | 12
C[C@H]1NC(=O)[C@H]2[C@@H](CCCC(F)(F)Cn3c(-c4nc5cc(C(=O)N[C@H]6CNCC[C@@H]6F)c(F)cc5n4C4CC4)cc4ccc1nc43)C2(F)F [Example 389, 1-cyclopropyl-6-fluoro-~{N}-[(3~{S},4~{S})-4-fluoro-3-piperidyl]-2-[(2~{R},5~{R},7~{R})-6,6,11,11-tetrafluoro-2-methyl-4-oxo-3,13,19-triazatetracyclo[11.5.2.0^{5,7}.0^{16,20}]icosa-1(19),14,16(20),17-tetraen-14-yl]benzimidazole-5-carboxamide] | 31
C[C@H]1NC(=O)[C@@H]2[C@@H](CCCC(F)(F)Cn3c(-c4nc5cc(C(=O)N[C@H]6CNCC[C@@H]6F)c(F)cc5n4C4CC4)cc4ccc1nc43)C2(F)F [Example 390, 1-cyclopropyl-6-fluoro-~{N}-[(3~{S},4~{S})-4-fluoro-3-piperidyl]-2-[(2~{R},5~{S},7~{R})-6,6,11,11-tetrafluoro-2-methyl-4-oxo-3,13,19-triazatetracyclo[11.5.2.0^{5,7}.0^{16,20}]icosa-1(19),14,16(20),17-tetraen-14-yl]benzimidazole-5-carboxamide] | 88
C[C@H]1NC(=O)[C@H]2[C@H](CCCC(F)(F)Cn3c(-c4nc5cc(C(=O)N[C@H]6CNCC[C@@H]6F)c(F)cc5n4C4CC4)cc4ccc1nc43)C2(F)F [Example 391, 1-cyclopropyl-6-fluoro-~{N}-[(3~{S},4~{S})-4-fluoro-3-piperidyl]-2-[(2~{R},5~{R},7~{S})-6,6,11,11-tetrafluoro-2-methyl-4-oxo-3,13,19-triazatetracyclo[11.5.2.0^{5,7}.0^{16,20}]icosa-1(19),14,16(20),17-tetraen-14-yl]benzimidazole-5-carboxamide] | 34
C[C@H]1NC(=O)[C@H]2[C@@H](CCCCCn3c(-c4nc5cc(C(=O)N[C@H]6CNCC[C@@H]6F)c(F)cc5n4C4CC4)cc4ccc1nc43)C2(F)F [Example 392, 1-cyclopropyl-2-[(2~{R},5~{R},7~{R})-6,6-difluoro-2-methyl-4-oxo-3,13,19-triazatetracyclo[11.5.2.0^{5,7}.0^{16,20}]icosa-1(19),14,16(20),17-tetraen-14-yl]-6-fluoro-~{N}-[(3~{S},4~{S})-4-fluoro-3-piperidyl]benzimidazole-5-carboxamide] | 22
C[C@H]1NC(=O)[C@@H]2[C@@H](CCCCCn3c(-c4nc5cc(C(=O)N[C@H]6CNCC[C@@H]6F)c(F)cc5n4C4CC4)cc4ccc1nc43)C2(F)F [Example 393, 1-cyclopropyl-2-[(2~{R},5~{S},7~{R})-6,6-difluoro-2-methyl-4-oxo-3,13,19-triazatetracyclo[11.5.2.0^{5,7}.0^{16,20}]icosa-1(19),14,16(20),17-tetraen-14-yl]-6-fluoro-~{N}-[(3~{S},4~{S})-4-fluoro-3-piperidyl]benzimidazole-5-carboxamide] | 63
C[C@H]1NC(=O)[C@H]2[C@H](CCCCCn3c(-c4nc5cc(C(=O)N[C@H]6CNCC[C@@H]6F)c(F)cc5n4C4CC4)cc4ccc1nc43)C2(F)F [Example 394, 1-cyclopropyl-2-[(2~{R},5~{R},7~{S})-6,6-difluoro-2-methyl-4-oxo-3,13,19-triazatetracyclo[11.5.2.0^{5,7}.0^{16,20}]icosa-1(19),14,16(20),17-tetraen-14-yl]-6-fluoro-~{N}-[(3~{S},4~{S})-4-fluoro-3-piperidyl]benzimidazole-5-carboxamide] | 23
Cc1cncc2c1C(=O)N[C@H](C)c1ccc3cc(-c4nc5cc(C(=O)N[C@H]6CNCC[C@@H]6F)c(F)cc5n4C4CC4)n(c3n1)CCCCC2 [Example 395, 1-cyclopropyl-2-[(2~{R})-2,6-dimethyl-4-oxo-3,8,16,22-tetrazatetracyclo[14.5.2.0^{5,10}.0^{19,23}]tricosa-1(22),5(10),6,8,17,19(23),20-heptaen-17-yl]-6-fluoro-~{N}-[(3~{S},4~{S})-4-fluoro-3-piperidyl]benzimidazole-5-carboxamide] | 29
Cc1nccc2c1C(=O)N[C@H](C)c1ccc3cc(-c4nc5cc(C(=O)N[C@H]6CNCC[C@@H]6F)c(F)cc5n4C4CC4)n(c3n1)CCCCC2 [Example 396, 1-cyclopropyl-2-[(2~{R})-2,6-dimethyl-4-oxo-3,7,16,22-tetrazatetracyclo[14.5.2.0^{5,10}.0^{19,23}]tricosa-1(22),5(10),6,8,17,19(23),20-heptaen-17-yl]-6-fluoro-~{N}-[(3~{S},4~{S})-4-fluoro-3-piperidyl]benzimidazole-5-carboxamide] | 17
COc1cc(C(=O)N2CC[C@@H](OC)[C@@H](N)C2)cc2nc(-c3cc4ccc5nc4n3CCCCCc3cccc(C(F)F)c3C(=O)N[C@@H]5C)n(C)c12 [Example 397, (2~{R})-17-[5-[(3~{S},4~{R})-3-amino-4-methoxy-piperidine-1-carbonyl]-7-methoxy-1-methyl-benzimidazol-2-yl]-6-(difluoromethyl)-2-methyl-3,16,22-triazatetracyclo[14.5.2.0^{5,10}.0^{19,23}] tricosa-1(22),5(10),6,8,17,19(23),20-heptaen-4-one] | 91
